Assay results as given in PMC10291556 (Journal of Medicinal Chemistry, 2023).

Columns and labels:
Assay type in all cases: cell-based, human
[1] = system: HeLa cells; assay: Wound healing assay; details: 24 h, multiples of IC50,72h
Description: Figure 7 (A–E) Wound healing assay. The monolayer of HeLa cells was scratched with a 10 μL tip, and a starving medium containing the tested complexes was added. The shots were taken at times 0 and 24 h. (A) Control, non-treated cells; (B) cells treated with complex 3; (C) cells treated with complex 4. […] (E) Evaluation of wound healing assay. Bars represent gap size vs. Control (100%), following a 24 h incubation with the investigated compounds. Light gray bars: complex 3; dark gray bars: complex 4; black bar: complex 2. (F) Re-adhesion assay. […] Following trypsinization, the cells were resuspended in Dulbecco’s modified Eagle medium (DMEM), counted, left to reconstitute adhesive membrane proteins for 30 min, and re-seeded at the density of 3× 10^4 cells/100 μL/well. After 30 min of incubation at 37 °C, the re-adhesion activity was determined as described in the Experimental Section. Data represents mean ± SD, n = 8; *p < 0.05, **p < 0.01, ***p < 0.001.
HeLa cells were grown close to confluence in 6-well plates in a complete medium, and then the medium was replaced with a serum-free medium [supplemented with 0.1% bovine serum albumin (BSA)], and the cells were incubated for an additional 24 h. The HeLa monolayers were scratched with a 10 μL pipet tip, and the cells were washed twice with PBS to remove peeled cells and treated with tested compounds at indicated concentrations. The scratched areas were shot immediately after the complex addition and then after 24 h with a Canon EOS 1200D camera attached to an Olympus CKX41 inverted microscope with a 10×/0.25 phase contrast objective. Digital images were taken by the QuickPHOTO MICRO 3.1 program (PROMICRA, Prague, Czech Republic) and processed with the TScratch analysis software (ETH Zürich, Switzerland). The cell’s ability to migrate into the open area was expressed as a percentage of control.

[2] = system: tubulin in HeLa cells; assay: Western blotting of tubulin; details: 24 h, 0.25× or 0.5× IC50,72h, Western blot
Description: Figure 2 Western blotting analyses of tubulin in protein extract from HeLa cells treated with the investigated Pt complexes. (A) Representative membranes. […] Proteins from control, untreated cells were loaded to lane C. (B) Quantitative data evaluation; bars represent mean ± SD from two independent experiments.
HeLa cells were seeded in 60 mm dishes at a density of 3 × 10^5 cells/dish and cultured for 20 h. The cells were then treated with the tested compounds at concentrations indicated in the text. After 24 h of treatment, the cells were scraped, washed, and pelleted. […] After transferring to the polyvinylidene fluoride membrane, the proteins were detected using appropriate antibodies: anti-GAPDH antibody (mouse, Sigma-Aldrich), Anti-COX-2 (rabbit, Abcam), Anti-α-, β-, or γ-tubulin (all rabbit, Abcam), Anti-β-actin (mouse, Abcam), Goat Anti-Rabbit IgG(HRP) (Abcam; HRP = horseradish peroxidase), and Goat Anti-Mouse IgG(HRP) (ThermoFisher Scientific). SignalFire ECL Reagent (A + B) was used as a substrate for HRP, and the luminescence was recorded with Amersham Imager 680. The densities in the images were assessed with the Aida image analysis software.

[3] = system: HeLa cells; assay: Glucose consumption; details: 24 h, IC50 concentrations
Description: Figure 3 (A) Lactate production. Relative lactate concentration in medium following a 6 h treatment of HeLa cells with the investigated compounds at concentrations corresponding to 5× IC50. […] Data represents mean ± SD, n = 2–4; asterisks indicate a statistically significant difference from the untreated control (*p < 0.01, **p < 0.005, ***, ***p < 0.001).
Glucose concentration in the culture medium prior to and after the treatment was determined with an Amplex Red Glucose/Glucose Oxidase Assay Kit (Invitrogen) following the producer’s protocol. Glucose consumption was normalized to final cell counts. The glucose amount consumed by the non-treated control was taken at 100%.

[4] = system: COX-2 in HeLa cells; assay: Western blotting of COX-2; details: 24 h, 1×, 3× IC50, Western blot
Description: (B) Quantitative evaluation of Western blotting data; the relative expression of COX-2 normalized to GAPDH. Data represents the mean ± SD of two experiments. The stars indicate the statistical significance of difference vs control determined with the Student t-test (*p < 0.05, **p < 0.01, ***p < 0.001).
HeLa cells were seeded in 60 mm dishes at a density of 3 × 10^5 cells/dish and cultured for 20 h. The cells were then treated with the tested compounds at concentrations indicated in the text. After 24 h of treatment, the cells were scraped, washed, and pelleted. […] 4–20% SDS-PAGE (sodium dodecyl sulfate-polyacrylamide gel electrophoresis) (Mini-PROTEAN TGX Precast Gel) was used to resolve the proteins. After transferring to the polyvinylidene fluoride membrane, the proteins were detected using appropriate antibodies: anti-GAPDH antibody (mouse, Sigma-Aldrich), Anti-COX-2 (rabbit, Abcam), Anti-α-, β-, or γ-tubulin (all rabbit, Abcam), Anti-β-actin (mouse, Abcam), Goat Anti-Rabbit IgG(HRP) (Abcam; HRP = horseradish peroxidase), and Goat Anti-Mouse IgG(HRP) (ThermoFisher Scientific). SignalFire ECL Reagent (A + B) was used as a substrate for HRP, and the luminescence was recorded with Amersham Imager 680. The densities in the images were assessed with the Aida image analysis software.

[5] = system: COX in HeLa cells; assay: COX activity assay (kit) in treated cells; details: 24 h, 1× IC50,72h, vs untreated control
Description: The results are expressed relative to the COX activity of untreated control.
HeLa cells were seeded in 6-well plates at a density of 10^5 cells/well and incubated overnight. The cells were treated with the tested compounds at concentrations corresponding to 1× IC50. Following a 24 h treatment, the cells were lyzed with radioimmunoprecipitation assay (RIPA) buffer supplemented with proteinase inhibitors on ice for 10 min. The extracts were cleared with centrifugation (12,000g/5 min), and protein content was determined using Bradford assay. COX activity was determined with a COX Activity Assay Kit (Abcam). 6 μg of protein was used in the reaction. The experiment was set up according to the manufacturer’s instructions. The fluorescence (Ex/Em 535/587 nm) was read in a kinetic mode, and the COX inhibition was expressed as a percentage of the activity of the untreated control.

[6] = system: HeLa cells; assay: Lactate production; details: 6 h, 5× IC50, free DCF at concentrations 380–770 times higher
Description: HeLa cells were seeded (1 × 10^5 cells/well) and grown in 12-well plates, treated with platinum agents, and diclofenac for 6 h. Lactate concentration in the culture medium was measured using a colorimetric Lactate Assay Kit (Sigma-Aldrich) following the manufacturer’s instructions. […] The amount of lactate in individual samples was determined from a standard curve and expressed as a percentage of non-treated control.

## Cc1c(C)c2c3c4c1=CC=C[N]4[Pt]([Cl])[N]3C=CC=2.NCCNC(=O)Cc1ccccc1Nc1c(Cl)cccc1Cl.N[C@H]1CCCC[C@@H]1N [complex 3, Pt(IV)56MESSenDCFCl]
[1]
  migration activity (wound closing): reduced the ability of HeLa cells to close artificial wounds
[2]
  reduction of the amount of tubulin in cell extracts: higher potency of the two complexes to reduce the amount of tubulin
[3]
  glucose consumption: reduction in glucose consumption
[4]
  intracellular level of COX-2 protein: able to reduce the intracellular level of COX-2 protein
[5]
  inhibition of COX activity: slightly but significantly inhibited COX-2 activity
[6]
  lactate excreted into media: considerably reduced

## Cc1c(C)c2c3c4c1=CC=C[N]4[Pt][N]3C=CC=2.NCCNC(=O)Cc1ccccc1Nc1c(Cl)cccc1Cl.NCCNC(=O)Cc1ccccc1Nc1c(Cl)cccc1Cl.N[C@H]1CCCC[C@@H]1N [complex 4, Pt^IV56MeSS(DCF)2]
[1]
  migration activity (wound closing): reduced the ability of HeLa cells to close artificial wounds
[2]
  reduction of the amount of tubulin in cell extracts: higher potency of the two complexes to reduce the amount of tubulin
[3]
  glucose consumption: reduction in glucose consumption
[4]
  intracellular level of COX-2 protein: able to reduce the intracellular level of COX-2 protein
[5]
  inhibition of COX activity: slightly but significantly inhibited COX-2 activity
[6]
  lactate excreted into media: considerably reduced
